# Reference: patent US11932637B2, “Chromane amidine monobactam compounds for the treatment of bacterial infections” (priority 2021, dated 2024)
# Columns and labels:
# Assay type in all cases: cell-based
# [1] = test system: Pseudomonas aeruginosa expressing AmpC (CL5701); experiment: Antibiotic activity: growth inhibitory concentration (OD600), P. aeruginosa CL5701; details: concentration inhibiting 95% of bacterial growth, with BLi Relebactam 4 μg/mL, 22 hours
# Experimental: (§1) Biological Assays Antibiotic Activity: Determination of Growth Inhibitory Concentration The concentrations of compounds required to inhibit the growth of various strains of bacteria were determined in an assay that assessed bacterial growth by measuring optical density at 600 nm (OD600). The bacterial strains tested included the clinical strains Escherichia coli expressing NDM-1 (CLB30016), Klebsiella pneumoniae expressing KPC-1 (CL6569), Acinetobacter baumannii expressing TEM-1, AmpC, and Oxa-24/40 (CL6188) and Pseudomonas aeruginosa expressing AmpC (CL5701). All compounds were tested in the presence of a β lactamase inhibitor (BLi, Relebactam) in 384-well microplates.
# (§2) The clinical strains were stored as frozen single use stocks, thawed and diluted into 1.1× cation-adjusted Mueller-Hinton II broth to achieve approximately 2×10^5 CFU/mL. Test compounds were dissolved in DMSO and diluted 1:50 in the assay, resulting in a final concentration range of 100 μM to 0.098 μM. On the day of the assay, 1 μL of test compound was added to the plate followed by 4 μL of 50 μg/mL BLi in MOPS buffer and 45 μL of diluted bacteria. Plates were centrifuged at 1000 rpm for 30 seconds, shaken at approximately 800 rpm for 1 minute, and incubated at 35 t 2° C. for 22 hours. The concentration of BLi used in the assay was 4 μg/mL. At the end of the incubation, absorbance at 600 nm was determined using a spectrophotometer. Inhibition was quantitated by identifying the lowest concentration of test compound that was required to inhibit 95% of the growth of the bacteria.
# [2] = test system: Acinetobacter baumannii expressing TEM-1, AmpC, and Oxa-24/40 (CL6188); details: concentration inhibiting 95% of bacterial growth; with BLi Relebactam 4 μg/mL; 22 hours; OD600
# Experimental: as §1, §2
# [3] = test system: Escherichia coli expressing NDM-1 (CLB30016); experiment: Antibiotic activity: growth inhibitory concentration (OD600), E. coli CLB30016; details: concentration inhibiting 95% of bacterial growth, with BLi Relebactam 4 μg/mL, 22 hours
# Experimental: as §1, §2
Structure (SMILES),PA_CL5701 MITC95 [1] [µM],AB_CL6188 MITC95 [2] [µM],EC_CLB30016 MITC95 [3] [µM]
"CC1(C)[C@H](NC(=O)/C(=N\O[C@](C)(C(=O)O)[C@H]2CCc3cc(C(=N)N[C@H]4C[C@]5(CCNC5)C4)ccc3O2)c2csc(N)n2)C(=O)N1OS(=O)(=O)O [Compound 22, (S)-2-((R)-6-(N-((2r,4S)-6-azaspiro[3.4]octan-2-yl)carbamimidoyl)chroman-2-yl)-2-((((Z)-1-(2-aminothiazol-4-yl)-2-(((S)-2,2-dimethyl-4-oxo-1-(sulfooxy)azetidin-3-yl)amino)-2-oxoethylidene)amino)oxy)propanoic acid]",1.563,,
"CC1(C)[C@H](NC(=O)/C(=N\O[C@](C)(C(=O)O)[C@H]2CCc3cc(C(=N)N[C@H]4C[C@@]5(CCNC5)C4)ccc3O2)c2csc(N)n2)C(=O)N1OS(=O)(=O)O [Compound 23, (S)-2-((R)-6-(N-((2s,4R)-6-azaspiro[3.4]octan-2-yl)carbamimidoyl)chroman-2-yl)-2-((((Z)-1-(2-aminothiazol-4-yl)-2-(((S)-2,2-dimethyl-4-oxo-1-(sulfooxy)azetidin-3-yl)amino)-2-oxoethylidene)amino)oxy)propanoic acid]",3.125,6.25,6.25
"COC[C@]1(NC(=N)c2ccc3c(c2)CC[C@H]([C@](C)(O/N=C(\C(=O)N[C@@H]2C(=O)N(OS(=O)(=O)O)C2(C)C)c2csc(N)n2)C(=O)O)O3)CC[C@H](N)CC1 [Compound 127, (S)-2-((R)-6-(N-((1r,4R)-4-amino-1-(methoxymethyl)cyclohexyl)carbamimidoyl)chroman-2-yl)-2-((((Z)-1-(2-aminothiazol-4-yl)-2-(((S)-2,2-dimethyl-4-oxo-1-(sulfooxy)azetidin-3-yl)amino)-2-oxoethylidene)amino)oxy)propanoic acid]",3.125,,
"CC1(C)[C@H](NC(=O)/C(=N\O[C@](C)(C(=O)O)[C@H]2CCc3cc(C(=N)N[C@H]4C[C@@](N)(C[C@@H](O)CO)C4)ccc3O2)c2csc(N)n2)C(=O)N1OS(=O)(=O)O [Compound 95, (S)-2-((R)-6-(N-((1R,3R)-3-amino-3-((R)-2,3-dihydroxypropyl)cyclobutyl)carbamimidoyl)chroman-2-yl)-2-((((Z)-1-(2-aminothiazol-4-yl)-2-(((S)-2,2-dimethyl-4-oxo-1-(sulfooxy)azetidin-3-yl)amino)-2-oxoethylidene)amino)oxy)propanoic acid]",1.563,,6.25
"CC1(C)[C@H](NC(=O)/C(=N\O[C@](C)(C(=O)O)[C@H]2CCc3cc(C(=N)N[C@H]4C[C@@H](N)C4)ccc3O2)c2csc(N)n2)C(=O)N1OS(=O)(=O)O [Compound 7, (S)-2-((R)-6-(N-((1 s,3S)-3-aminocyclobutyl)carbamimidoyl)chroman-2-yl)-2-((((Z)-1-(2-aminothiazol-4-yl)-2-(((S)-2,2-dimethyl-4-oxo-1-(sulfooxy)azetidin-3-yl)amino)-2-oxoethylidene)amino)oxy)propanoic acid]",1.563,,
"COCc1c(C(=N)N[C@H]2C[C@@H](N)C2)ccc2c1CC[C@H]([C@](C)(O/N=C(\C(=O)N[C@@H]1C(=O)N(OS(=O)(=O)O)C1(C)C)c1csc(N)n1)C(=O)O)O2 [Compound 124, (S)-2-((R)-6-(N-((1s,3S)-3-aminocyclobutyl)carbamimidoyl)-5-(methoxymethyl)chroman-2-yl)-2-((((Z)-1-(2-aminothiazol-4-yl)-2-(((S)-2,2-dimethyl-4-oxo-1-(sulfooxy)azetidin-3-yl)amino)-2-oxoethylidene)amino)oxy)propanoic acid]",3.125,,50
"CC1(C)[C@H](NC(=O)/C(=N\O[C@](C)(C(=O)O)[C@H]2CCc3cc(C(=N)NC4CC(N)(C[C@H](O)CO)C4)ccc3O2)c2csc(N)n2)C(=O)N1OS(=O)(=O)O (stereo partly drawn) [Compound 94, (S)-2-((R)-6-(N-((1S,3R)-3-amino-3-((S)-2,3-dihydroxypropyl)cyclobutyl)carbamimidoyl)chroman-2-yl)-2-((((Z)-1-(2-aminothiazol-4-yl)-2-(((S)-2,2-dimethyl-4-oxo-1-(sulfooxy)azetidin-3-yl)amino)-2-oxoethylidene)amino)oxy)propanoic acid]",1.563,6.25,
"COC[C@]1(NC(=N)c2ccc3c(c2)CC[C@H]([C@](C)(O/N=C(\C(=O)N[C@@H]2C(=O)N(OS(=O)(=O)O)C2(C)C)c2csc(N)n2)C(=O)O)O3)CC[C@@H](N)CC1 [Compound 126, (S)-2-((R)-6-(N-((1s,4S)-4-amino-1-(methoxymethyl)cyclohexyl)carbamimidoyl)chroman-2-yl)-2-((((Z)-1-(2-aminothiazol-4-yl)-2-(((S)-2,2-dimethyl-4-oxo-1-(sulfooxy)azetidin-3-yl)amino)-2-oxoethylidene)amino)oxy)propanoic acid]",6.25,,25
"CC1(C)[C@H](NC(=O)/C(=N\O[C@](C)(C(=O)O)[C@H]2CCc3cc(C(=N)N[C@H]4C[C@](N)(CC(O)CO)C4)ccc3O2)c2csc(N)n2)C(=O)N1OS(=O)(=O)O (stereo partly drawn) [Compound 96, (S)-2-((R)-6-(N-((1R,3S)-3-amino-3-((S)-2,3-dihydroxypropyl)cyclobutyl)-carbamimidoyl)chroman-2-yl)-2-((((Z)-1-(2-aminothiazol-4-yl)-2-(((S)-2,2-dimethyl-4-oxo-1-(sulfooxy)azetidin-3-yl)amino)-2-oxoethylidene)amino)oxy)propanoic acid]",1.563,6.25,
